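These data come from cells grown in 96-well plates and exposed to compound for 48 hours at five concentrations. The concentration for 50% growth inhibition is given as GI50.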 The source made the active and inactive calls. No stated cut-off is given here; in the data, active = GI50 up to about 1.1 µM and inactive = higher. *1 amine or outer side, *2 acyl side, *3 side chain or, on linkers, in order; H or OH if unused. Where a SMILES comes first, the peptide text is derived from it. Bridges are numbered along the chain shown (N, C = ends). [ ]: non-standard residue; d: D form. The star is where a group is joined. X56 = CC(C)C(C)C(C(=O)[*:2])N(C)[*:1]; Picolinoyl(3-OH) = O=C(c1ncccc1O)*; NMePhg = CN[CH](C(=O)O)c1ccccc1; Hyp = O=C(O)[CH]1C[CH](O)CN1; Sar = CNCC(=O)O
Legend:
Assay in all cases: NCI-60 cell line screen, 48 h
SF-539 = tested on: SF-539
OVCAR-5 = tested on: OVCAR-5
RPMI-8226 = tested on: RPMI-8226
SK-MEL-5 = tested on: SK-MEL-5
HT-29 = tested on: HT-29
OVCAR-4 = tested on: OVCAR-4
786-0 = tested on: 786-0
HOP-92 = tested on: HOP-92
NCI-H23 = tested on: NCI-H23
OVCAR-3 = tested on: OVCAR-3
ACHN = tested on: ACHN
CAKI-1 = tested on: CAKI-1
NCI-H460 = tested on: NCI-H460
NCI/ADR-RES = tested on: NCI/ADR-RES
SW-620 = tested on: SW-620
UO-31 = tested on: UO-31
NCI-H226 = tested on: NCI-H226
COLO 205 = tested on: COLO 205
UACC-257 = tested on: UACC-257
HCC 2998 = tested on: HCC 2998

Measured: GI50

COc1ccc(C2=NN(C(=O)c3cccnc3)C(O)(c3cc(F)c(Cl)cc3Cl)C2)cc1OC (stereo not given)
inactive: SF-539 16.1 µM | OVCAR-5 30.2 µM | RPMI-8226 13.4 µM | SK-MEL-5 12.1 µM | HT-29 12.3 µM | OVCAR-4 15.6 µM | 786-0 22 µM | HOP-92 14.1 µM | NCI-H23 20.4 µM | OVCAR-3 11.5 µM | ACHN 21.3 µM | CAKI-1 24.1 µM | NCI-H460 15.2 µM | NCI/ADR-RES 14.8 µM | SW-620 17.9 µM | UO-31 17.5 µM | NCI-H226 12.8 µM | COLO 205 12.3 µM | UACC-257 13.6 µM

CSCC[C@@H]1C(=O)N(C)[C@H](C(C)(C)C)N1C(=O)c1ccccc1
inactive: SF-539 > 100 µM | OVCAR-5 > 100 µM | RPMI-8226 > 100 µM | SK-MEL-5 > 100 µM | HT-29 > 81.5 µM | OVCAR-4 > 100 µM | HOP-92 > 100 µM | NCI-H23 > 100 µM | OVCAR-3 > 100 µM | NCI-H460 > 100 µM | NCI/ADR-RES > 100 µM | SW-620 > 100 µM | UO-31 > 100 µM | HCC 2998 > 100 µM | NCI-H226 > 100 µM | COLO 205 > 100 µM | UACC-257 > 100 µM

CCCSCC(P(=O)(O)O)P(=O)(O)O.NC1CCCCC1
inactive: SF-539 > 100 µM | OVCAR-5 > 100 µM | RPMI-8226 > 100 µM | SK-MEL-5 > 100 µM | HT-29 > 100 µM | OVCAR-4 > 100 µM | HOP-92 > 100 µM | NCI-H23 > 100 µM | OVCAR-3 55.7 µM | CAKI-1 > 100 µM | NCI-H460 > 100 µM | NCI/ADR-RES > 100 µM | SW-620 > 100 µM | UO-31 > 100 µM | HCC 2998 > 100 µM | NCI-H226 > 100 µM | COLO 205 > 100 µM | UACC-257 > 100 µM

COc1ccc(CC2Cc3ccccc3CCN2)cc1OC (stereo not given)
inactive: SF-539 37.8 µM | OVCAR-5 38.2 µM | RPMI-8226 18.3 µM | HT-29 13.8 µM | OVCAR-4 > 50 µM | 786-0 26.3 µM | HOP-92 17.9 µM | NCI-H23 > 50 µM | OVCAR-3 > 50 µM | CAKI-1 > 50 µM | NCI-H460 37.4 µM | NCI/ADR-RES > 50 µM | SW-620 > 50 µM | UO-31 11.8 µM | HCC 2998 > 50 µM | NCI-H226 12.1 µM | COLO 205 11.3 µM | UACC-257 21.6 µM

CC(C)CC1NC(=O)C(NC(=O)c2ncccc2O)C(C)OC(=O)C(c2ccccc2)N(C)C(=O)C(C)NC(=O)C(C(C)C(C)C)N(C)C(=O)CN(C)C(=O)C2CC(O)CN2C1=O (stereo not given) ({Picolinoyl(3-OH)}-TL[Hyp][Sar][X56]A[NMePhg]; ester 1-C; configuration not given here)
inactive: SF-539 74.5 µM | OVCAR-5 > 125 µM | RPMI-8226 35.8 µM | SK-MEL-5 24.3 µM | HT-29 37.6 µM | OVCAR-4 66.5 µM | HOP-92 74.1 µM | NCI-H23 58.6 µM | OVCAR-3 104 µM | CAKI-1 89.1 µM | NCI-H460 12.3 µM | NCI/ADR-RES > 125 µM | SW-620 32.7 µM | UO-31 > 85.5 µM | HCC 2998 78.7 µM | NCI-H226 71.1 µM | COLO 205 80.2 µM | UACC-257 58.2 µM

COC(=O)[C@@H](Nc1ccccc1)[C@@]1(C(=O)OC)SC12c1ccccc1-c1ccccc12
inactive: SF-539 45.8 µM | OVCAR-5 > 100 µM | RPMI-8226 25.8 µM | SK-MEL-5 41.4 µM | HT-29 34.3 µM | OVCAR-4 69.2 µM | 786-0 29.4 µM | HOP-92 9.29 µM | NCI-H23 > 100 µM | OVCAR-3 43.2 µM | ACHN > 100 µM | CAKI-1 > 100 µM | NCI/ADR-RES > 100 µM | SW-620 38.3 µM | UO-31 42.3 µM | HCC 2998 > 100 µM | NCI-H226 > 100 µM | COLO 205 > 100 µM | UACC-257 84.3 µM

CC1(C)CCCOc2cccc(c2)OCCCC(C)(C)C1=O
inactive: SF-539 86.5 µM | OVCAR-5 > 100 µM | RPMI-8226 26.7 µM | SK-MEL-5 18.4 µM | HT-29 19.8 µM | OVCAR-4 27.5 µM | 786-0 41.5 µM | HOP-92 23 µM | NCI-H23 31.8 µM | OVCAR-3 22 µM | ACHN 36.8 µM | CAKI-1 46.2 µM | NCI-H460 25.1 µM | NCI/ADR-RES 38.3 µM | SW-620 27 µM | UO-31 51.4 µM | NCI-H226 25.5 µM | COLO 205 49.3 µM

COc1cc(C2c3cc4c(cc3OC(Nc3ccccc3)C2C)OCO4)cc(OC)c1O (stereo not given)
inactive: SF-539 2.84 µM | OVCAR-5 7.96 µM | RPMI-8226 3.69 µM | SK-MEL-5 3.08 µM | HT-29 3.85 µM | OVCAR-4 11.8 µM | 786-0 7.5 µM | HOP-92 16.7 µM | NCI-H23 7.03 µM | OVCAR-3 4.47 µM | CAKI-1 8.39 µM | NCI/ADR-RES 2.38 µM | SW-620 3.37 µM | UO-31 8.38 µM | HCC 2998 4.12 µM | NCI-H226 19.6 µM | COLO 205 11.3 µM | UACC-257 7.73 µM
